Assay results reported in US20100152206A1, “Bicyclic Dihydropyrimidines and Uses Thereof” (priority 2005, published 2010).

What was measured:
[1] = biological target: T1, Eg5 motor domain construct Eg5-367H (Homo sapiens, UniProt P52732); assay: Activity of Eg5 inhibitors in pure protein assay (microtubule-stimulated ATP hydrolysis, malachite green phosphate detection); format: biochemical; settings: microtubule-stimulated ATP hydrolysis by Eg5-367H, 25 degrees, 2 hours
T1 construct: the Eg5 motor domain construct Eg5-367H; His tag (read from the 'H' in the construct name; not spelled out for this construct)
T1 sequence (P52732 18-359 limits assumed): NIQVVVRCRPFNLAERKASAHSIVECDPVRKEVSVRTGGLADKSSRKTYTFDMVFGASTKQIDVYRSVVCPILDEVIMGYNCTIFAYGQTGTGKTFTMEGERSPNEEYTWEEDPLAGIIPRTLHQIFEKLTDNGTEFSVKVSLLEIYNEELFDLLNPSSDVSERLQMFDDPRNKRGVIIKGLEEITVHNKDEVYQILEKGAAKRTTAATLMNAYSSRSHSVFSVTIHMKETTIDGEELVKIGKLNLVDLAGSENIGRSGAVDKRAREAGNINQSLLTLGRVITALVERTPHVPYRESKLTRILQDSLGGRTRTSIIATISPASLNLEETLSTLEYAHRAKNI
Procedure: We utilized a colorimetric phosphate detection assay (Funk, 2004) to measure microtubule-stimulated ATP hydrolysis by the Eg5 motor domain construct Eg5-367H (Maliga, 2002) as a function of drug concentration. Stocks solutions of each compound were prepared by serial dilution into DMSO and 0.1 microliters was added by pin transfer into KC25 buffer (20 mM PIPES-KOH, pH 6.9, 25 mM KCl, 2 mM MgC12) supplemented with 1 mM ATP-KOH, pH 6.9. KC25 supplemented with 10 micromolar taxol, 50 nanomolar Eg5-367H, and 1 micromolar taxol-polymerized microtubules was then added and the reaction incubated at 25 degrees for 2 hours. Malachite green assay solution (7% (w/v) perchloric acid, 0.0075% (w/v) malachite green oxalate, 0.2% (w/v) sodium molybdate dihydrate) was added to each reaction and the optical absorbance at 640 nm (640) was measured after a 30 minute incubation using a Wallac II automated plate reader. A640 as a function of! drug concentration (C) was fit to the equation A640=A0+B/(1+C/IC50) using Kaleidegraph 3.0, A0 is the basal A640, B is the maximum increase in A640, and IC50 is the drug concentration that inhibits half the Eg5 activity.

Hela cells = assay: cells; settings: Homo sapiens, 20 h
Procedure: Hela cells were grown (Maliga, et. al. 2001) to 20% confluence in 384-well, clear-bottomed, black-walled NUNC plates and serial dilutions of prospective Eg5 inhibitors were added by pin transfer, as above [0277], incubated at 37° C. for 20 hours, fixed with TBS-0.1% Triton X100 supplemented with 4% formaldehyde, and stained stained for DNA, phosphorylated Ser10-Histone 3, and alpha-tubulin. Each drug concentration was inspected for the characteristic monoaster phenotype: condensed phospho-S10 positive chromosomes arranged in a rosette pattern around a circularly symmetric array of microtubules, and the absence of bi-polar mitotic spindles.

Compound | IC50 [1] [µM] | IC50 (Hela cells) [µM]
O=C1OCCC2=C1C(c1cccc(O)c1)NC(=S)N2 (stereo not shown) [Entry 5] | 0.5 | 30
CCOC(=O)C1=C(CCO[Si](C(C)C)(C(C)C)C(C)C)NC(=S)NC1c1cccc(O)c1 (stereo not shown) [Entry 4] | > 30 | > 300
O=C1OCC2=C1C(c1cccc(O)c1)NC(=S)N2 (stereo not shown) [Entry 8] | 20 | 300
CCOC(=O)C1=C(CN)NC(=S)NC1c1cccc(O)c1 (stereo not shown) [Entry 6] | 12 | 200
O=C1NCCC2=C1C(c1cccc(O)c1)NC(=S)N2 (stereo not shown) [Entry 1] | 1.5 | 50
CCOC(=O)C1=C(C)NC(=S)NC1c1cccc(N)c1 (stereo not shown) [Entry 10] | > 30 | > 300
O=C1NCC2=C1C(c1cccc(O)c1)NC(=S)N2 (stereo not shown) [Entry 9] | 12 | > 300
CCOC(=O)C1=C(CCNC(=O)OC(C)(C)C)NC(=S)NC1c1cccc(O)c1 (stereo not shown) [Entry 3] | > 30 | > 300
CCOC(=O)C1=C(CO)NC(=S)NC1c1cccc(O)c1 (stereo not shown) [Entry 7] | 30 | 300
CCOC(=O)C1=C(C)NC(=S)NC1c1cccc(O)c1 (stereo not shown) [Monastrol, reference compound] | 12 | 300
CCOC(=O)C1=C(CCN)NC(=S)NC1c1cccc(O)c1 (stereo not shown) [Entry 2] | > 30 | > 300
